The compounds below were run against Escherichia coli DNA gyrase A/B tetramer (Escherichia coli (strain K12), UniProt P0AES4+P0AES6) (assay: DNA gyrase supercoiling activity fluorescence polarisation assay). Conditions: 5 nM enzyme, relaxed plasmid, 0.3 mM ATP, ambient temperature; read-out: E. coli DNA gyrase supercoiling IC50.
Assay type: biochemical
Outline: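 Supercoiling reactions quenched with 40 nM 5′-BODIPY-FL triplex-forming oligonucleotide probe in pH 3.5 NaCl/sodium acetate buffer; after 60 min, fluorescence anisotropy read (ex 485/em 535 nm). IC50 by nonlinear regression, normalised to 0.8% DMSO (100% activity) and 5 μM ciprofloxacin (0% activity).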

Going from `C[C@@H]1CN2c3c(cc4c(-n5cc(C(=O)O)cn5)noc4c3F)CC3(C(=O)NC(=O)NC3=O)[C@H]2[C@H](C)O1` (relative stereo) [Example 186, 1-[(2R,4S,4aS)-rel-11-fluoro-2,4-dimethyl-2′,4′,6′-trioxo-1,1′,2,3′,4,4′,4a,6′-octahydro-2′H,6H-spiro[1,4-oxazino[4,3-a][1,2]oxazolo[4,5-g]quinoline-5,5′-pyrimidin]-8-yl]-1H-pyrazole-4-carboxylic acid] to `C[C@@H]1CN2c3c(cc4c(-n5cc(C(N)=O)cn5)noc4c3F)CC3(C(=O)NC(=O)NC3=O)[C@H]2[C@H](C)O1` (relative stereo) [Example 189, 1-[(2R,4S,4aS)-rel-11-fluoro-2,4-dimethyl-2′,4′,6′-trioxo-1,1′,2,3′,4,4′,4a,6′-octahydro-2′H,6H-spiro[1,4-oxazino[4,3-a][1,2]oxazolo[4,5-g]quinoline-5,5′-pyrimidin]-8-yl]-1H-pyrazole-4-carboxamide], the IC50 falls from 7.6 µM to 2.2 µM (3.5-fold). The second is the more potent here.

`C[C@@H]1CN2c3c(cc4c(-n5cc(C(=O)N(C)C)cn5)noc4c3F)CC3(C(=O)NC(=O)NC3=O)[C@H]2[C@H](C)O1` (relative stereo) [Example 187, 1-[(2R,4S,4aS)-rel-11-fluoro-2,4-dimethyl-2′,4′,6′-trioxo-1,1′,2,3′,4,4′,4a,6′-octahydro-2′H,6H-spiro[1,4-oxazino[4,3-a][1,2]oxazolo[4,5-g]quinoline-5,5′-pyrimidin]-8-yl]-N,N-dimethyl-1H-pyrazole-4-carboxamide] and `CNC(=O)c1cnn(-c2noc3c(F)c4c(cc23)CC2(C(=O)NC(=O)NC2=O)[C@H]2[C@H](C)O[C@H](C)CN42)c1` (relative stereo) [Example 188, 1-[(2R,4S,4aS)-rel-11-fluoro-2,4-dimethyl-2′,4′,6′-trioxo-1,1′,2,3′,4,4′,4a,6′-octahydro-2′H,6H-spiro[1,4-oxazino[4,3-a][1,2]oxazolo[4,5-g]quinoline-5,5′-pyrimidin]-8-yl]-N-methyl-1H-pyrazole-4-carboxamide] are within 1.5-fold of each other in IC50: 3.3 µM for the first, 2.7 µM for the second.

Going from `C[C@@H]1CN2c3c(cc4c(-n5cc(CO)cn5)noc4c3F)CC3(C(=O)NC(=O)NC3=O)[C@H]2[C@H](C)O1` (relative stereo) [Example 190, (2R,4S,4aS)-rel-11-fluoro-8-[4-(hydroxymethyl)-1H-pyrazol-1-yl]-2,4-dimethyl-1,2,4,4a-tetrahydro-2′H,6H-spiro[1,4-oxazino[4,3-a][1,2]oxazolo[4,5-g]quinoline-5,5′-pyrimidine]-2′,4′,6′(1′H,3′H)-trione] to `C[C@@H]1CN2c3c(cc4c(-n5cncn5)noc4c3F)CC3(C(=O)NC(=O)NC3=O)[C@H]2[C@H](C)O1` [Example 53(a), (2R,4 S,4 aS)-11-fluoro-2,4-dimethyl-8-(1H-1,2,4-triazol-1-yl)-2,4,4a,6-tetrahydro-1H,1′H-spiro[isoxazolo[4,5-g][1,4]oxazino[4,3-a]quinoline-5,5′-pyrimidine]-2′,4′,6′(3′H)-trione], the IC50 falls from 2.1 µM to 0.2 µM (10-fold). The second is the more potent here.

Going from `C[C@@H]1CN2c3c(cc4c(C(N)=S)noc4c3F)CC3(C(=O)NC(=O)NC3=O)[C@H]2[C@H](C)O1` (relative stereo) [Intermediate 575, (2R,4S,4aS)-rel-11-fluoro-2,4-dimethyl-2′,4′,6′-trioxo-1,1′,2,3′,4,4′,4a,6′-octahydro-2′H,6H-spiro[1,4-oxazino[4,3-a][1,2]oxazolo[4,5-g]quinoline-5,5′-pyrimidine]-8-carbothioamide] to `Cc1noc2c(F)c3c(cc12)CC1(C(=O)NC(=O)NC1=O)[C@@H]1[C@@H](C)O[C@@H](C)CN31` [Example 2(a), (2S,4R,4aR)-11-fluoro-2,4,8-trimethyl-2,4,4a,6-tetrahydro-1′H,1′H-spiro[isoxazolo[4,5-g][1,4]oxazino[4,3-a]quinoline-5,5′-pyrimidine]-2′,4′,6′(3′H)-trione], the IC50 rises from 1 µM to 83 µM (83-fold).

Compared with `CC1O[C@H](C)CN2c3c(cc4c(-c5cnccn5)noc4c3F)CC3(C(=O)NC(=O)NC3=O)[C@H]12` (stereo in doubt) [Example 165(a), (2R,4S,4aR)-11-fluoro-2,4-dimethyl-8-(pyrazin-2-yl)-2,4,4a,6-tetrahydro-1H,1′H-spiro[isoxazolo[4,5-g][1,4]oxazino[4,3-a]quinoline-5,5′-pyrimidine]-2′,4′,6′(3′H)-trione], `C[C@H]1CN2c3c(cc4c(-c5ccncn5)noc4c3F)CC3(C(=O)NC(=O)NC3=O)[C@@H]2[C@@H](C)O1` [Example 74(a), (2S,4R,4aR)-11-fluoro-2,4-dimethyl-8-(pyrimidin-4-yl)-2,4,4a,6-tetrahydro-1H,1′H-spiro[isoxazolo[4,5-g][1,4]oxazino[4,3-a]quinoline-5,5′-pyrimidine]-2′,4′,6′(3′H)-trione] is 3.5-fold higher in IC50: 7.8 µM for the first, 27 µM for the second.

Compared with `Cc1noc2c(F)c3c(cc12)CC1(C(=O)NC(=O)NC1=O)[C@H]1[C@H](C)O[C@H](C)CN31` [Example 2(b), (2R,4S,4aS)-11-fluoro-2,4,8-trimethyl-2,4,4a,6-tetrahydro-1H,1′H-spiro[isoxazolo[4,5-g][1,4]oxazino[4,3-a]quinoline-5,5′-pyrimidine]-2′,4′,6′(3′H)-trione], `C[C@H]1CN2c3c(cc4c(C(F)F)noc4c3F)CC3(C(=O)NC(=O)NC3=O)[C@@H]2[C@@H](C)O1` [Example 93(a), (2S,4R,4aR)-8-(difluoromethyl)-11-fluoro-2,4-dimethyl-2,4,4a,6-tetrahydro-1H,1′H-spiro[isoxazolo[4,5-g][1,4]oxazino[4,3-a]quinoline-5,5′-pyrimidine]-2′,4′,6′(3′H)-trione] is 190-fold higher in IC50: 0.3 µM for the first, 56 µM for the second. The first is the more potent here.

Compared with `C[C@@H]1CN2c3c(cc4c(-n5cncn5)noc4c3F)CC3(C(=O)NC(=O)NC3=O)[C@@H]2[C@@H](C)O1` [Example 53(b), (2R,4R,4aR)-11-fluoro-2,4-dimethyl-8-(1H-1,2,4-triazol-1-yl)-2,4,4a,6-tetrahydro-1H,1′H-spiro[isoxazolo[4,5-g][1,4]oxazino[4,3-a]quinoline-5,5′-pyrimidine]-2′,4′,6′(3′H)-trione], `C[C@@H]1CN2c3c(cc4c(-c5ccncn5)noc4c3F)CC3(C(=O)NC(=O)NC3=O)[C@H]2[C@H](C)O1` [Example 74(b), (2R,4S,4aS)-11-fluoro-2,4-dimethyl-8-(pyrimidin-4-yl)-2,4,4a,6-tetrahydro-1H,1′H-spiro[isoxazolo[4,5-g][1,4]oxazino[4,3-a]quinoline-5,5′-pyrimidine]-2′,4′,6′(3′H)-trione] is 67-fold lower in IC50: 20 µM for the first, 0.3 µM for the second. The second is the more potent here.

Going from `C[C@H]1CN2c3c(cc4c(C(F)(F)F)noc4c3F)CC3(C(=O)NC(=O)NC3=O)[C@@H]2[C@@H](C)O1` [Example 92(a), (2S,4R,4aR)-11-fluoro-2,4-dimethyl-8-(trifluoromethyl)-2,4,4a,6-tetrahydro-1H,1′H-spiro[isoxazolo[4,5-g][1,4]oxazino[4,3-a]quinoline-5,5′-pyrimidine]-2′,4′,6′(3′H)-trione] to `C[C@@H]1CN2c3c(cc4c(C(F)(F)F)noc4c3F)CC3(C(=O)NC(=O)NC3=O)[C@H]2[C@H](C)O1` [Example 92(b), (2R,4S,4aS)-11-fluoro-2,4-dimethyl-8-(trifluoromethyl)-2,4,4a,6-tetrahydro-1H,1′H-spiro[isoxazolo[4,5-g][1,4]oxazino[4,3-a]quinoline-5,5′-pyrimidine]-2′,4′,6′(3′H)-trione], the IC50 falls from 65 µM to 0.6 µM (110-fold).
